Assay results published in US20040077667A1, “Quinazolinone derivatives” (priority 2000, published 2004).

Key:
recombinant human PARP = recombinant human PARP (Homo sapiens, UniProt P09874); assay: PARP inhibitory activity (in vitro assay); format: biochemical; details: 32P-NAD, 15 minutes at room temperature
Procedure: B. PARP Inhibitory Activity (In Vitro Assay)
The recombinant human PARP (5.3 mg protein/ml) were incubated with a test compound in a 100 μl reaction buffer containing the indicated concentration of 1 mCi/ml ^32P-NAD, 50 mM Tris-HCl, 25 mM MgCl2, 1 mM DTT (dithiothreitol), 0.05 mM NAD (nicotinamido adenine dinucleotide), 1 mg/ml activated DNA, pH8.0. Incubation was for 15 minutes at a room temperature and the reaction was stopped by the addition of 200 μl of ice-cold 20% tricholoroacetic acid followed by rapid filtration through GF/B filters. The filters were treated with scintillation fluid and acid-insoluble counts were measured for quantification of unit activity.
PARP inhibitory activity (%)=[1-(enzyme activity with test compound)/(enzyme activity with vehicle)]×100

[1] = tested on: Mice MPTP(N-methyl-1,2,3,6-tetrahydropyridine)-induced Parkinson's model; assay: Effect on the level of striatal dopamine and its metabolite in mice MPTP-induced Parkinson's model; format: in vivo; details: 32 mg/kg, two i.p. injections, four days after last MPTP, *P < 0.05 vs MPTP
Procedure: C. Effect of Test Compound on the Level of Striatal Dopamine and its Metabolite in Mice MPTP([…])-induced Parkinson's model
Mice received four i.p. injections of MPTP-HCl (20 mg/kg) in saline at 2 hours intervals and two i.p. injections of Test compound at 30 minutes before 1st injection and 3rd injection of MPTP.
Four days after the last MPTP injection, mice were sacrificed, brains were quickly removed, and striata were dissected out on an ice-cold glass Petri dish. Samples were homogenized in a buffer of 0.1M perchloric acid containing isoproterenol as internal standard. HPLC with electrochemical detection was used to measure striatal levels of DA (dopamine), DOPAC (dihydroxyphenylacetic acid) and HVA (homovanilic acid).
The level of DA, DOPAC and HVA were expressed as a percentage of Normal taken as the 100%.

Chain of recombinant human PARP (P09874 whole entry): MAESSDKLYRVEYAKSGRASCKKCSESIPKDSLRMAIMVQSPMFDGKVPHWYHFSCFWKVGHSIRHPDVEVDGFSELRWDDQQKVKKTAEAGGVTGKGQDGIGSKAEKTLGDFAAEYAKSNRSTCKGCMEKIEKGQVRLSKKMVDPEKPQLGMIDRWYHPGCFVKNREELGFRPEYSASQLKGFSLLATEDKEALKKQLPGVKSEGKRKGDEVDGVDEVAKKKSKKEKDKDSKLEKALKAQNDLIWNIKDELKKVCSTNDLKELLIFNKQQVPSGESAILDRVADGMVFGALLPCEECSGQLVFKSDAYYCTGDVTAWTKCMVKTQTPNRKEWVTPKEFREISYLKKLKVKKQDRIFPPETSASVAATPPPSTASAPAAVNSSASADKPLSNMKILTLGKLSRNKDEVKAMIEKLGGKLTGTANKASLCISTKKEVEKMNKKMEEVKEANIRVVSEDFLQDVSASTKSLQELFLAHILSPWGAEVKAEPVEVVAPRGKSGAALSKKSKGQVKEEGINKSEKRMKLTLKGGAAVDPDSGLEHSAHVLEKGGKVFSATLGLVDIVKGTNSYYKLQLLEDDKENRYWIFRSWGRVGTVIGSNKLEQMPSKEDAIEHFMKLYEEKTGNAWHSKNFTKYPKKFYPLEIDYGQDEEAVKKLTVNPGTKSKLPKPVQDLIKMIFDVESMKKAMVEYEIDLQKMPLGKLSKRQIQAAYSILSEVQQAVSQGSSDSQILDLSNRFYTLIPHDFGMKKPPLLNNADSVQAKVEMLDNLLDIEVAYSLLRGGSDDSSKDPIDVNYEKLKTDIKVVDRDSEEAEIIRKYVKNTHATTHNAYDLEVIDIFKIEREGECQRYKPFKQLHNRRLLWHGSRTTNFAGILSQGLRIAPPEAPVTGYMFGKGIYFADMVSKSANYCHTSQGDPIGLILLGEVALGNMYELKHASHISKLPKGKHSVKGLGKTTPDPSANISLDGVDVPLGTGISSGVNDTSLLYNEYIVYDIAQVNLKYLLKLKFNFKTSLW

Question: What does the source list for `O=c1[nH]c(CCCN2CC=C(c3ccccc3)CC2)nc2cccc(Cl)c12` [Compound A, 5-chloro-2-[3-(4-phenyl-3,6-dihydro-1(2H)-pyridinyl)propyl]-4(3H)-quinazolinone]?
Answer: IC50 (recombinant human PARP): < 0.5 µM; Dopamine levels ([1]; striatal DA as percentage of Normal (100%)): 59* %; DOPAC levels ([1]; striatal DOPAC as percentage of Normal (100%)): 58* %; HVA levels ([1]; striatal HVA as percentage of Normal (100%)): 64* %

Question: `O=c1[nH]c(/C=C/CN2CC=C(c3ccc(F)cc3)CC2)nc2c(Cl)cccc12` [Compound B, 8-chloro-2-{(1E)-3-[4-(4-fluorophenyl)-3,6-dihydro-1(2H)-pyridinyl]-1-propenyl}-4(3H)-quinazolinone] was tested. Which IC50 (recombinant human PARP) did it give?
Answer: < 0.5 µM

Question: Which IC50 (recombinant human PARP) does the source give for `O=c1[nH]c(CCCN2CC=C(c3ccncc3)CC2)nc2c(Cl)cccc12` [Compound C, 8-Chloro-2-{[4-(4-pyridinyl)-3,6-dihydro-1(2H)-pyridinyl]propyl}-4(3H)-quinazolinone] here?
Answer: < 0.5 µM

Question: For `Cc1cccc2c(=O)[nH]c(CCCN3CCc4c([nH]c5ccccc45)C3)nc12` [Compound D, 8-methyl-2-[3-(1,3,4,9-tetrahydro-2H-pyrido[3,4-b]indol-2-yl)propyl]-4(3H)-quinazolinone], which IC50 (recombinant human PARP) is on record?
Answer: < 0.5 µM
